According to patent US8106092B2, “Treatment of solid cancers” (priority 2004, dated 2012):

What was measured:
[1] = tested on: B16-OVA tumors; experiment: SIINFEKL-specific CD8+ T-cell induction after topical PEP005 treatment of B16-OVA (IFNγ ELISPOT); type: in vivo, C57/BL6 mice
Experimental: B16 and B16 cells stably expressing ovalbumin (B16-OVA)were grown s.c. in C57BL/6 mice as described previously (Ogbourne et al, Cancer Res 64:2833-2839, 2004; Anraku et al, J Virol 76:3791-3799, 2002). Lung metastases were established as described (Zeh et al, J Immunol 162:989-994, 1999). Lewis lung-OVA (Nelson et al, J Immunol 166:5557-5566, 2001) were grown s.c. in C57BL/6 as described (Lenarczyk et al, Vaccine 22:963-974, 2004).
Tumors were treated by topical or intratumoral (i.t.) injection (using a 26 gauge needle) of (i) PEP0005 dissolved in acetone and then RPMI 1640 (final concentration of acetone 4%), or (ii) PEP005 formulated in PEG400.
Mouse splenocytes were analyzed by ex vivo IFNγ ELISPOT essentially as described previously (Le et al, Vaccine 19:4669-4675, 2001), but using MultiScreen-IP plates (Millipore) and 25 IU/ml of recombinant human IL-2 (Cetus).
Following three topical applications of PEP005 to established s.c. B16-OVA tumors on C57/BL6 mice, the number of SIINFEKL [SEQ ID NO:2]-specific CD8^+ T-cell induced were measured using IFNγ ELISPOT. As controls, the SIINFEKL [SEQ ID NO:2] specific CM^+ T-cell induced following (i) PEP005 treatment without tumor, (ii) mock treatment of B16 tumors and (iii) naïve mice (no PEP005 or tumor), were also tested.

[2] = tested on: B16 tumors; experiment: Example 3: topical PEP005 with DC+IL-2 and M720/B16, larger primary B16 tumors; type: in vivo, C57BL/6 mice; settings: topical dose printed 15 μg/ml, tumors 26-30 mm^2
Description: To determine whether PEP005 treatment could synergize with (i) vaccine-induced anti-cancer CD4 T-cells/antibodies and/or (ii) vaccine-induced anti-cancer CD8^+ T-cells, topical PEP005 treatment was combined with vaccination using (i) B16 lysate emulsified in Montanide ISA 720 adjuvant (M720/B16) and (ii) DC2.4 cells sensitized with TRP-2 peptide, SVYDFFVWL [SEQ ID NO:1] and activated with LPS (DC). The latter group also received IL-2 to maintain the vaccine induced T-cells. […] This experiment sought to determine whether improvements in B16 cure rate could be achieved when sub-optimal topical PEP005 treatment was combined with other immune-based therapies. This experiment differed from that described in Example 2 in that treatment was initiated when tumors were slightly larger and the M720/B16 vaccine was given d0 not d−5, and the dose of B16 cells in that vaccine was increased 10-fold.
B16 tumors were injected 2×10^6 s.c. into C57BL/6 mice on d−3 and on dO when the tumors had reached an average size of 26-30 mm^2, the groups of animal received the following treatments. […]
PEP005+DCAL-2: PEP005 (as above) plus DC2.4 cells which were (i) sensitized with TRP-2 peptide, SVYDFFVWL [SEQ ID NO:1] […]

[3] = tested on: B16 tumors; experiment: Example 4: i.t. PEP005 on RHS primary B16 tumor with or without DC+IL-2, growth of LHS secondary tumor; type: in vivo, C57BL/6 mice
Description: It has previously been established that PEP005-mediated curing of primary tumors can lead to the reduction secondary tumors in a B16-OVA lung metastasis and a s.c. Lewis lung-OVA model. These studies were extended (i) using a model where the model antigen ovalbumin is absent, (ii) using a system where both primary and secondary tumors are established before treatment initiation and (iii) using DC therapy combined with PEP005-mediated curing of primaries, to determine whether the two treatments can improve the anti-cancer effect on the secondary tumors.
[…], three groups of C57BL/6 mice were inoculated with 1×10^5 B16 s.c. on the right hand side of the back (RHS) and 2×10^4 s.c. on the left hand side of the back (LHS). A fourth group (Group 4) received only 2×10^4 s.c. on the left hand side of the back (LHS). On d0. the groups were given the following treatments:
PEP005 RHS: The larger RHS tumors were treated intra-tumorally with 25 μg PEP005 in 50 μl of 5% w/v DMSO in RPMI 1640 supplemented with HEPES 10 mM.
PEP005 RHS+DC+IL-2: The large RHS tumors were treated as for Group 1 plus the animals received on d0 DC2.4 cells (i) activated with LPS (for 3 hr incubation at 37° C. using 1 μg/ml E. coli 055:B5, Sigma), (ii) sensitized with TRP-2 peptide, SVYDFFVWL [SEQ ID NO:1] (30 μg/ml 2 hr, 37° C.), (iii) irradiated (5000 rads), washed and then injected i.v. (4×10^6/mouse iv) on d0. The animals also received rhIL-2 at 5×10^4 IU given twice daily per mouse from d0 to d4 i.p.
CONT TREAT RHS: Mock treatment group; the larger RHS tumors were treated intra-tumorally with 50 μl of 5% w/v DMSO in RPMI1640 supplemented with HEPES 10 mM.
NO RHS: This group had no RHS tumor and received no treatment.

## C/C=C(/C)C(=O)O[C@H]1C(C)=C[C@]23C(=O)[C@@H](C=C(CO)[C@@H](O)[C@]12O)[C@H]1[C@@H](C[C@H]3C)C1(C)C [PEP005, ingenol-3-angelate]
[1]; B16-OVA tumors treated topically with PEP005
  tumor bearing animals cured: 4/7
[1]; mice receiving PEP005 without tumor, limit of detection five spots/10^6 splenocytes
  SIINFEKL-specific CD8+ T-cell responses (IFNγ ELISPOT): no significant responses
[1]; mice with B16-OVA tumors treated with three topical applications of PEP005 (cured mice, n=4), p=0.058 vs combined negative controls
  SIINFEKL-specific CD8+ T-cell responses (IFNγ ELISPOT): some weak variable responses
[2]
  cure of B16 tumors by topical PEP005 alone: did not cure most B16 tumors
[3]; 25 μg PEP005 in 50 μl of 5% w/v DMSO in RPMI 1640, i.t.
  tolerability of i.t. treatment: not well tolerated
[3]; i.t. 25 μg PEP005 on d0
  RHS (primary) tumors successfully cured: 5/6
[3]; in each of Group 1 and 2 (n=7 each), PEP005 using DMSO
  mice dying shortly after i.t. treatment: one
[3]; mouse, in vivo
  survival (deaths due to growth of LHS tumor) vs NO RHS group: behaved essentially identically
[3]; p=0.042
  growth of LHS (secondary) tumor d5 to d11 vs NO RHS: slower
